In brackets after ≈: the same amount, converted by molar mass.

Data set [1] in a line: Solubility of Compound 1 free base in aqueous at various pH. The settings on record: aqueous solution, aqueous buffer. Type of data set: physicochemical. An excerpt: (§1) The rate is time and temperature sensitive (Table 1). The isolation of the crystalline bis-besylate salt of Compound 1 avoids the need for a pH swing. Also, the crystalline freebase has poor morphology which makes filtration slow, increasing the risk for racemization.

A short description of data set [2]: Chiral stability (racemization) of Compound 1 free base in aqueous at various pH. Type of data set: physicochemical. The settings on record: for Chiral Purity: aqueous.
Source text: as §1

One may read the solubility as the dissolved amount per volume that the medium holds. A low value points to little dissolved substance. In data set [1] (pH 5.3, time 3 h), `O=C1CC[C@H](N2C(=O)c3cccc(NCc4ccc(CN5CC(N6CCOCC6)C5)cc4F)c3C2=O)C(=O)N1` [Compound 1 Free Base, (S)-2-(2,6-dioxopiperidin-3-yl)-4-((2-fluoro-4-((3-morpholinoazetidin-1-yl)methyl)benzyl)amino)isoindoline-1,3-dione] registered a solubility at 3 h of 4500 µg/mL (≈ 8.4 mM). The solubility at 4 h came out at 2400 µg/mL (≈ 4.48 mM) in data set [1] (pH 6.7, time 4 h) and 400 µg/mL (≈ 0.747 mM) in data set [1] (pH 7.6, time 4 h). In data set [2] (aqueous base, rate is time and temperature sensitive), the “Chiral stability towards aqueous base” value is “racemization was observed”. Besides, the “Chiral Purity” value is listed as 94.1% in data set [2] (pH 5.3, time 3 h); 89.1% in data set [2] (pH 6.7, time 4 h); 83.2% in data set [2] (pH 7.6, time 4 h).
With `O=C1CC[C@H](N2C(=O)c3cccc(NCc4ccc(CN5CC(N6CCOCC6)C5)cc4F)c3C2=O)C(=O)N1.O=S(=O)(O)c1ccccc1.O=S(=O)(O)c1ccccc1` [Compound 1 bis-besylate salt, (S)-2-(2,6-dioxopiperidin-3-yl)-4-((2-fluoro-4-((3-morpholinoazetidin-1-yl)methyl)benzyl)amino)isoindoline-1,3-dione bis-besylate salt], the “Chiral stability compared to the crystalline freebase” value in data set [2] (isolated solid, compared to crystalline freebase) was “more stable”.
